Data reported in publication PMC9066185 (RSC Advances, 2019).

Target: xanthine oxidase from cow's milk (XO) (Bos taurus, UniProt P80457)
Experiment: uric acid formation at […] nm
Format: biochemical

Chain of xanthine oxidase from cow's milk (XO) (P80457 2-1332): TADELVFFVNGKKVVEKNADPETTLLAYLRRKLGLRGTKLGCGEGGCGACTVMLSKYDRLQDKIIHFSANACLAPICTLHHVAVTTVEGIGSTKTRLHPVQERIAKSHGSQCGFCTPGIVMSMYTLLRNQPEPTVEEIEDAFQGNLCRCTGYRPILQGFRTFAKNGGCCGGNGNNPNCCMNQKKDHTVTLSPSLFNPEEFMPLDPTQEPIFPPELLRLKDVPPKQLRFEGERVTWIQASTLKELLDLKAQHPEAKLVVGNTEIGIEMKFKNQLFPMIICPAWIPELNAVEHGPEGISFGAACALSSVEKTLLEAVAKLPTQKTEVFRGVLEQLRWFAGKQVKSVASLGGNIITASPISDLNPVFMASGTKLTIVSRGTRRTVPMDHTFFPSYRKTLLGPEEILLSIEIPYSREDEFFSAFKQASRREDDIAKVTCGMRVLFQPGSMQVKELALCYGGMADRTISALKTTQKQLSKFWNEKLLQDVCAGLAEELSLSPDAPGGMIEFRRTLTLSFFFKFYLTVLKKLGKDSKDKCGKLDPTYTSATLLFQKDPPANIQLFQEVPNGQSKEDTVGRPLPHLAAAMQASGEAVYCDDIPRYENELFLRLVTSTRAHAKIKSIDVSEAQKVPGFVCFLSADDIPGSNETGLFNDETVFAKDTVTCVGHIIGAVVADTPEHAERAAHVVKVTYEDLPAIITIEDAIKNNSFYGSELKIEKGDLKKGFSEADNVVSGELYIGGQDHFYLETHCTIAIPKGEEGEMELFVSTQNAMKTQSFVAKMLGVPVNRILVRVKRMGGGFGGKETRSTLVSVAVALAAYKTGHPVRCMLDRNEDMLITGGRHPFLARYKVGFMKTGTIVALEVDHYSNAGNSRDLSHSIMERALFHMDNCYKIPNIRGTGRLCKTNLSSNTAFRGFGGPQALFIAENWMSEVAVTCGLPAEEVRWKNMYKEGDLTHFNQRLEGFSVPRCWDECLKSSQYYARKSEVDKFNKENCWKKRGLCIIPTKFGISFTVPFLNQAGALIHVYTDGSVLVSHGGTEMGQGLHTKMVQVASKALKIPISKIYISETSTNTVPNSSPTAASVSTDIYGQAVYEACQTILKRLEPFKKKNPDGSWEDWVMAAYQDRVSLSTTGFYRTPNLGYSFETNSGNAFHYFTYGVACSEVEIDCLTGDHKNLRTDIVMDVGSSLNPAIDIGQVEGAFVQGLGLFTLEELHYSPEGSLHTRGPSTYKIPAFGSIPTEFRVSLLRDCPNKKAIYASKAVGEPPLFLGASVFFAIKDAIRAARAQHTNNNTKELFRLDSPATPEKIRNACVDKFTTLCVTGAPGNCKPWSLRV

With `Oc1cc(O)c2c(c1)O[C@H](c1ccc(O)c(O)c1)[C@H](O)[C@H]2c1c(O)cc(O)c2c1O[C@H](c1ccc(O)c(O)c1)[C@@H](O)C2` [procyanidin B1, (−)-epicatechin-(4β,8)-(+)-catechin] the IC50 was 92.5 µM.
